Data published in the NIST ThermoML archive (doi:10.1021/je401036f).
Numbers after ± are expanded uncertainties.

Assay: refractive index (Na D-line) (dimensionless); xn = mol fraction of the nth substance listed
Details: 101 kPa, Liquid, Standard Abbe refractometry

CC(O)CN (stereo not given) [1-amino-2-propanol] + CCC(C)O
refractive index
Details	288.15 K	293.15 K	298.15 K	303.15 K	308.15 K	313.15 K	318.15 K	323.15 K	328.15 K	333.15 K
x1 = 0.1003	1.4039 ± 0.0004	1.4018 ± 0.0004	1.3996 ± 0.0004	1.3974 ± 0.0004	1.3952 ± 0.0004	1.3929 ± 0.0004	1.3905 ± 0.0004	1.3881 ± 0.0004	1.3857 ± 0.0004	1.3832 ± 0.0004
x1 = 0.2005	1.4082 ± 0.0004	1.4062 ± 0.0004	1.404 ± 0.0004	1.4019 ± 0.0004	1.3996 ± 0.0004	1.3974 ± 0.0004	1.3951 ± 0.0004	1.3928 ± 0.0004	1.3905 ± 0.0004	1.3881 ± 0.0004
x1 = 0.3	1.4128 ± 0.0004	1.4107 ± 0.0004	1.4086 ± 0.0004	1.4065 ± 0.0004	1.4043 ± 0.0004	1.4021 ± 0.0004	1.3999 ± 0.0004	1.3977 ± 0.0004	1.3955 ± 0.0004	1.3932 ± 0.0004
x1 = 0.3999	1.4177 ± 0.0004	1.4156 ± 0.0004	1.4135 ± 0.0004	1.4114 ± 0.0004	1.4093 ± 0.0004	1.4071 ± 0.0004	1.4049 ± 0.0004	1.4028 ± 0.0004	1.4006 ± 0.0004	1.3983 ± 0.0004
x1 = 0.5	1.4228 ± 0.0004	1.4207 ± 0.0004	1.4186 ± 0.0004	1.4165 ± 0.0004	1.4144 ± 0.0004	1.4123 ± 0.0004	1.4102 ± 0.0004	1.408 ± 0.0004	1.4059 ± 0.0004	1.4036 ± 0.0004
x1 = 0.6001	1.428 ± 0.0004	1.4259 ± 0.0004	1.4239 ± 0.0004	1.4218 ± 0.0004	1.4197 ± 0.0004	1.4176 ± 0.0004	1.4154 ± 0.0004	1.4133 ± 0.0004	1.4112 ± 0.0004	1.409 ± 0.0004
x1 = 0.7	1.4332 ± 0.0005	1.4312 ± 0.0005	1.4292 ± 0.0005	1.4271 ± 0.0005	1.425 ± 0.0005	1.4229 ± 0.0005	1.4208 ± 0.0005	1.4187 ± 0.0005	1.4166 ± 0.0005	1.4144 ± 0.0005
x1 = 0.8	1.4386 ± 0.0005	1.4366 ± 0.0005	1.4345 ± 0.0005	1.4325 ± 0.0005	1.4304 ± 0.0005	1.4284 ± 0.0005	1.4263 ± 0.0005	1.4242 ± 0.0005	1.4221 ± 0.0005	1.42 ± 0.0005
x1 = 0.8999	1.4442 ± 0.0005	1.4422 ± 0.0005	1.4402 ± 0.0005	1.4382 ± 0.0005	1.4362 ± 0.0005	1.4342 ± 0.0005	1.4322 ± 0.0005	1.4302 ± 0.0005	1.4281 ± 0.0005	1.426 ± 0.0005
x1 = 1	1.45 ± 0.0005	1.448 ± 0.0005	1.446 ± 0.0005	1.444 ± 0.0005	1.4419 ± 0.0005	1.4399 ± 0.0005	1.4378 ± 0.0005	1.4358 ± 0.0005	1.4337 ± 0.0005	1.4315 ± 0.0005

CC(O)CN (stereo not given) [1-amino-2-propanol] + CCCCO
refractive index
Details	288.15 K	293.15 K	298.15 K	303.15 K	308.15 K	313.15 K	318.15 K	323.15 K	328.15 K	333.15 K
x1 = 0.1	1.4058 ± 0.0004	1.4038 ± 0.0004	1.4018 ± 0.0004	1.3998 ± 0.0004	1.3977 ± 0.0004	1.3956 ± 0.0004	1.3934 ± 0.0004	1.3913 ± 0.0004	1.3892 ± 0.0004	1.387 ± 0.0004
x1 = 0.2005	1.4104 ± 0.0004	1.4084 ± 0.0004	1.4064 ± 0.0004	1.4043 ± 0.0004	1.4022 ± 0.0004	1.4001 ± 0.0004	1.398 ± 0.0004	1.3958 ± 0.0004	1.3937 ± 0.0004	1.3915 ± 0.0004
x1 = 0.3	1.4151 ± 0.0004	1.413 ± 0.0004	1.411 ± 0.0004	1.4089 ± 0.0004	1.4068 ± 0.0004	1.4047 ± 0.0004	1.4026 ± 0.0004	1.4005 ± 0.0004	1.3983 ± 0.0004	1.3961 ± 0.0004
x1 = 0.3999	1.4198 ± 0.0004	1.4178 ± 0.0004	1.4157 ± 0.0004	1.4136 ± 0.0004	1.4115 ± 0.0004	1.4094 ± 0.0004	1.4073 ± 0.0004	1.4051 ± 0.0004	1.403 ± 0.0004	1.4008 ± 0.0004
x1 = 0.5	1.4246 ± 0.0004	1.4226 ± 0.0004	1.4205 ± 0.0004	1.4184 ± 0.0004	1.4163 ± 0.0004	1.4142 ± 0.0004	1.4121 ± 0.0004	1.4099 ± 0.0004	1.4078 ± 0.0004	1.4056 ± 0.0004
x1 = 0.6001	1.4295 ± 0.0004	1.4275 ± 0.0004	1.4254 ± 0.0004	1.4234 ± 0.0004	1.4213 ± 0.0004	1.4191 ± 0.0004	1.417 ± 0.0004	1.4149 ± 0.0004	1.4128 ± 0.0004	1.4106 ± 0.0004
x1 = 0.7	1.4345 ± 0.0005	1.4324 ± 0.0005	1.4304 ± 0.0005	1.4283 ± 0.0005	1.4262 ± 0.0005	1.4242 ± 0.0005	1.4221 ± 0.0005	1.42 ± 0.0005	1.4178 ± 0.0005	1.4156 ± 0.0005
x1 = 0.8	1.4395 ± 0.0005	1.4375 ± 0.0005	1.4354 ± 0.0005	1.4334 ± 0.0005	1.4313 ± 0.0005	1.4292 ± 0.0005	1.4272 ± 0.0005	1.425 ± 0.0005	1.4229 ± 0.0005	1.4208 ± 0.0005
x1 = 0.8997	1.4446 ± 0.0005	1.4426 ± 0.0005	1.4406 ± 0.0005	1.4385 ± 0.0005	1.4365 ± 0.0005	1.4344 ± 0.0005	1.4324 ± 0.0005	1.4303 ± 0.0005	1.4282 ± 0.0005	1.426 ± 0.0005
x1 = 1	1.45 ± 0.0005	1.448 ± 0.0005	1.446 ± 0.0005	1.444 ± 0.0005	1.4419 ± 0.0005	1.4399 ± 0.0005	1.4378 ± 0.0005	1.4358 ± 0.0005	1.4337 ± 0.0005	1.4315 ± 0.0005
